Values quoted from earlier work as cited in patent US11696883B2, “Compositions for reducing hair loss and/or increasing hair regrowth” (Triple Hair Inc., priority 2014, dated 2023).
Where two headings read alike, the source gives them in different places.

Key:
[1] = latanoprost in ophthalmology use
[2] = system: prostaglandin endoperoxide synthase-1 (PGHS-1); settings: Michelet et al. 1997
[3] = system: hair loss; settings: topical

Row | Structure (SMILES) | solubility (in 0.1N HCl and 0.1N NaOH) | solubility (in chloroform, DMSO, ethanol, methanol, n-propanol) | solubility (in propylene glycol, polyethylene glycol 400) | solubility (in water) | other adverse effects [1] | side effects [1] | solubility (in acetone, ethanol, ethyl acetate, isopropanol, methanol and octanol) | solubility (in acetonitrile) | activation of purified PGHS-1 [2] | effective in promoting regrowth of the hair [3]
1 | CC(C)(C)NC(=O)[C@H]1CC[C@H]2[C@@H]3CC[C@H]4NC(=O)C=C[C@]4(C)[C@H]3CC[C@]12C [Finasteride, (5α,17β)-N-(1,1-Dimethylethyl)-3-oxo-4-azaandrost-1-ene-17-carboxamide] | very slightly soluble | freely soluble | sparingly soluble | not soluble |  |  |  |  |  | 
2 | CC(C)OC(=O)CCC/C=C\C[C@@H]1[C@@H](CC[C@@H](O)CCc2ccccc2)[C@H](O)C[C@@H]1O [Latanoprost] |  |  |  | practically insoluble | erythema, folliculitis, sensation of burning and erysipelas | augmentation of periocular hirsuteness | freely soluble | very soluble |  | 
3 | Nc1cc(N2CCCCC2)nc(N)[n+]1[O-] [Minoxidil, 6-(1-pipedidinyl)-2,4-pyrimidinediamine 3-oxide] |  |  |  |  |  |  |  |  | potent activator | less than 40%
